Source: patent US20100260753A1, “AMINOFLAVONE (NSC 686288) AND COMBINATIONS THEREOF FOR TREATING BREAST CANCER” (priority 2007, published 2010)
“And” between values parts separate entries of the source, which are not always exact repeats. Equal entries are not always repeated. Where two headings read alike, the source gives them in different places. Each block holds one compound with its values, some of them ahead of it.

Columns and labels:
MCF-7 TAM1 [1] = test: MTT proliferation assay, MCF-7 TAM1; assay type: cell-based, human
Experimental: (§1) FIG. 2B depicts an MTT assay (10 days) comparing the sensitivity of parental MCF-7 to aminoflavone and the tamoxifen resistant subclone MCF-7TAM1 to 4-OH tamoxifen (TAM) and aminoflavone respectively. Cells were grown in medium with charcoal-stripped fetal calf serum supplemented with 10 nM E2, estrogen. MCF-7 cells that have become resistant to tamoxifen by either selection (MCF-7TAM1, FIG. 2B), or genetic manipulation (MCF-7Her2-18, Table 1), remain sensitive to aminoflavone. An understanding of how MCF-7 DF203r and MDA-MB-231 differ from MCF-7 in the dynamics and distribution of their AhR and AhR associated signaling complexes may allow the clarification of the basis for aminoflavone sensitivity and resistance.
(§2) MCF-7Her2-18 is a variant of MCF-7 over-expressing the Her2/neu oncoprotein. As a result, it is resistant to Herceptin® (Shou et al. 2004 “Mechanisms of tamoxifen resistance: increased estrogen receptor-HER2/neu cross-talk in ER/HER2-positive breast cancer.” J Nat Cancer Inst 96: 926-35) and tamoxifen. […] (1999 “A multidrug resistance transporter from human MCF-7 breast cancer cells.” Proc Natl Acad Sci USA. 95: 15665-70.) The IC50s (16-20 nM) and IC100s of aminoflavone (˜300 nM) were nearly identical in MCF-7Her2-18 and parental MCF-7 cells (See Table 1, below). In MCF-7TAM1 cells, which were serum starved and then treated for 10 days with E2 alone, 4-OH-tamoxifen plus E2, and aminoflavone plus E2, the concentration of 4-OH-tamoxifen causing growth inhibition was >10 μM.
(§3) Table 1 below summarizes the results of the MTT (methyl tetrazolium) tests that were performed to assay cell growth in a panel breast cell lines and their characteristics. Both, MCF-7Her2-18 and MCF-7TAM1 express estrogen receptor. […] The ER(−) cells MDA-MB-231 and MCF10A with nuclear AhR are several log-fold less sensitive to aminoflavone (Table 1, FIG. 4). These observations confirm that aminoflavone is valuable in patients who have lost clinical benefit from estrogen receptor antagonists. […]

MCF-7 cells = test: aminoflavone combination with estrogen receptor antagonists in MCF-7 cells; assay type: cell-based, human; details: administered with aminoflavone (FIG. 9)
Experimental: To examine the role of estrogen receptor in aminoflavone sensitivity, the inventors combined aminoflavone with a fixed concentration (100 nM) of the “pure” antiestrogen Faslodex® in MCF-7 cells.

MCF-7 [2] = test: MTT proliferation assay, MCF-7; assay type: cell-based, human
Experimental: (§4) FIG. 2A depicts in vitro MTT proliferation assay (5 days) showing aminoflavone activity in ER(+) and ER(−) breast cancer cell lines.
as §1
(§5) Table 1 below summarizes the results of the MTT (methyl tetrazolium) tests that were performed to assay cell growth in a panel breast cell lines and their characteristics. Both, MCF-7Her2-18 and MCF-7TAM1 express estrogen receptor. […] The ER(−) cells MDA-MB-231 and MCF10A with nuclear AhR are several log-fold less sensitive to aminoflavone (Table 1, FIG. 4). These observations confirm that aminoflavone is valuable in patients who have lost clinical benefit from estrogen receptor antagonists.
(§6) The inhibitory concentrations 50% (IC50) and 100% (IC100) listed in Table 1 represent the mean of three independent experiments. The estrogen receptor and AhR assays were performed three times.

MCF-7 HER2-18 [3] = test: MTT proliferation assay, MCF-7 HER2-18; assay type: cell-based, human; details: mean of three independent experiments
Experimental: as §1, §2, §3

T47D [4] = test: MTT proliferation assay, T47D; assay type: cell-based, human
Experimental: as §4, §5, §6

MDA-MB-231 [5] = test: MTT proliferation assay, MDA-MB-231; assay type: cell-based, human
Experimental: as §4, §5, §6

MCF10A [6] = test: MTT proliferation assay, MCF10A; assay type: cell-based, human
Experimental: as §5, §6

MCF-7 [7] = test: γ-H2AX foci induction, MCF-7; assay type: cell-based, human; details: IC50 concentrations, 24 hrs after exposure
Description: (§7) Previous studies have reported that the occurrence of foci of phosphorylated γ-H2AX is indicative of the cellular response to aminoflavone in MCF-7 cells (Meng et al.). γ-H2AX phosphorylation is an early indicator of DNA double strand breaks and thus, induction of DNA-damage response in cells.
(§8) Phosphorylation of the histone variant γ-H2AX is a rapid and sensitive response to DNA double strand breaks. Aminoflavone induces γ-H2AX foci in drug sensitive MCF-7 and MCF-7TAM1 cells at IC50 concentrations 24 hrs after exposure, but not in aminoflavone resistant MDA-MB-231 breast cancer cells. γ-H2AX was detected by using a FITC-labeled anti-mouse secondary antibody (green) and its nuclear expression is shown by co-localization with the nuclear stain DAPI (blue). AhR was detected with a TRITC-labeled (red) secondary antibody.

MCF-7 HER2-18 [8] = test: γ-H2AX foci induction, MCF-7 HER2-18; assay type: cell-based, human
MCF-7 TAM1 [9] = test: γ-H2AX foci induction, MCF-7 TAM1; assay type: cell-based, human; details: IC50 concentrations, 24 hrs after exposure
Description: as §7, §8

T47D [10] = test: γ-H2AX foci induction, T47D; assay type: cell-based, human
MDA-MB-231 [11] = test: γ-H2AX foci induction, MDA-MB-231; assay type: cell-based, human
Description: as §7, §8

MCF10A [12] = test: γ-H2AX foci induction, MCF10A; assay type: cell-based, human
MCF-7DF203r = test: MTT proliferation assay (5 days), MCF-7DF203r; assay type: cell-based, human; details: MTT 5 days; MCF-7 subclone with acquired resistance to benzothiazoles (DF203)
Description: (Loaiza-Pérez et al.; Leong et al.) Isogenic subclones of MCF-7 resistant to the BZ DF203F (MCF-7DF203r), tamoxifen (MCF-7TAM1, MCF-7Her2-18) and Herceptin® (MCF-7Her2-18) were included.
as §4

ER+MDA-MB-231 cells = test: aminoflavone sensitivity of MDA-MB-231 stably transfected with human estrogen receptor-α; assay type: cell-based
Hs578T = test: aminoflavone sensitivity of Hs578T (FIGS. 6A and 6B); assay type: cell-based, human
LTLC = test: growth inhibition in hormone refractory LTLC (FIGS. 5A and 5B); assay type: cell-based, human; details: LTLC hormone refractory cell line
MCF-7 xenografts = details: 120 mg/kg intraperitoneally, 5 days per week; cited from earlier work
NCI 60 cell line = details: "resistant" cell lines; cited from earlier work
[13] = MCF-7, MTT, mean of three independent experiments

Structure (SMILES): CC/C(=C(\c1ccc(O)cc1)c1ccc(OCCN(C)C)cc1)c1ccccc1 [4-OH-tamoxifen, reference compound]
concentration causing growth inhibition (MCF-7 TAM1 [1]; MCF-7TAM1, serum starved, 10 days, plus E2): > 10 µM

Structure (SMILES): C[C@]12CC[C@@H]3c4ccc(O)cc4C[C@@H](CCCCCCCCC[S+]([O-])CCCC(F)(F)C(F)(F)F)[C@H]3[C@@H]1CC[C@@H]2O (stereo partly drawn) [Faslodex®, fulvestrant]
cell growth inhibition compared to aminoflavone alone (MCF-7 cells): inhibited more greatly

IC50 (MCF-7 [2]; Homo sapiens, MCF7, MCF-7, MTT, mean of three independent experiments): 16 to 20 nM
IC50 (MCF-7 [2]; [13]): 16 nM
IC50 (MCF-7 HER2-18 [3]; Homo sapiens): 16 to 20 nM
IC50 (MCF-7 HER2-18 [3]): 20 nM
IC50 (MCF-7 TAM1 [1]; Homo sapiens, MCF7:TAM1, 240 h, MCF-7 TAM1, MTT 10 days, plus E2): 550 nM
IC50 (T47D [4]; Homo sapiens, MTT): 14 nM
IC50 (ER+MDA-MB-231 cells; MDA-MB-231 stably transfected with human estrogen receptor-α): 5000 nM
Structure (SMILES): Cc1c(F)c(N)c2c(=O)cc(-c3ccc(N)c(F)c3)oc2c1F [aminoflavone]
sensitivity to aminoflavone (MCF-7 [2]; MCF-7, MTT 5 days (FIG. 2A)): pronounced susceptibility
IC100 (MCF-7 [2]; [13]): ~300 nM
IC100 (MCF-7 HER2-18 [3]): ~300 nM and 375 nM
IC100 (MCF-7 TAM1 [1]; MCF-7 TAM1, MTT): 2 µM
IC100 (T47D [4]; MTT): 20 nM
sensitivity to aminoflavone (T47D [4]; MTT 5 days (FIG. 2A)): pronounced susceptibility
IC100 (MDA-MB-231 [5]; MTT): >100 µM
sensitivity to aminoflavone (MDA-MB-231 [5]; MTT 5 days (FIG. 2A)): refractoriness
IC50 (MCF10A [6]): 3000 nM
IC100 (MCF10A [6]): 9 µM
IC50 (MCF10A [6]; Homo sapiens, MCF-10A): 3000 to 25000 nM
γ-H2AX Focl (MCF-7 [7]): induces and yes
γ-H2AX Focl (MCF-7 HER2-18 [8]): yes
γ-H2AX Focl (MCF-7 TAM1 [9]): induces and yes
γ-H2AX Focl (T47D [10]): yes
γ-H2AX Focl (MDA-MB-231 [11]): no
γ-H2AX Focl (MCF10A [12]): no
sensitivity to aminoflavone (MCF-7DF203r): essentially completely cross-resistant
sensitivity compared to parental and vector transfected cells (ER+MDA-MB-231 cells; ER+MDA-MB-231 vs parental and vector transfected cells): 5 times
sensitivity to aminoflavone (Hs578T): resistant
tumor growth inhibition (LTLC): inhibits tumor growth
tumor growth inhibition (MCF-7 xenografts): 85 % of control
total growth inhibition (TGI) (NCI 60 cell line): ≥ 10000 nM

Structure (SMILES): CC/C(=C(\c1ccccc1)c1ccc(OCCN(C)C)cc1)c1ccccc1 [tamoxifen]
cell growth inhibition compared to aminoflavone alone (MCF-7 cells): inhibited more greatly
